Earlier results on two compounds are cited in US9962390B2, “Mosapride sustained-release formulation providing pharmacological and clinical effects with once-daily administration” (Korea United Pharm. Inc., priority 2013, dated 2018).

Structures can show the parent of a compound that is named as a salt.

Assay in data set [1]: not given
The source holds these as a separate data set.

Turning to `CCOc1cc(N)c(Cl)cc1C(=O)NCC1CN(Cc2ccc(F)cc2)CCO1` (stereo not shown) [Mosapride, 4-amino-5-chloro-2-ethoxy-N-{[4-(4-fluorobenzyl)-2-morpholinyl]methyl}benzamide], the “concentration in eyeballs relative to blood” value (eyeballs) was “about half the concentration in blood”. The “concentration relative to that in blood plasma” value (liver, small intestine, kidney, and adrenal glands) is “at least 10 times”. The “absorbed in the digestive tract” value (orally administered) is listed as “more than 93%”.
Turning to `CCOc1cc(N)c(Cl)cc1C(=O)NCC1CN(Cc2ccc(F)cc2)CCO1` (stereo not shown) [Mosapride citrate], the “water solubility compared with Mosapride” value in data set [1] is on record as “higher water solubility”.
